These results are taken from patent USRE39593E1 (Gruenenthal GmbH, priority 1994, dated 2007).

Usually inhibition stands for the share of the control response that was lost under treatment. As a reminder, the ED50 is the dose that gives a 50% effect, or the effect in half of the subjects. A higher ED50 goes with weaker potency.

Counter-ions that a name gives are not always drawn.

For one experiment, the system named is phenylquinone-induced writhing reaction. Briefly: Phenylquinone-induced writhing test on mice. The conditions noted are these: Mus musculus, male NMRI mice; 25 mg/kg per os, 30 min before phenylquinone i.p. It is filed as in vivo. How it is done: The analgesic effectiveness of the compounds according to the invention was investigated in the phenylquinone-induced writhing test, modified according to I. C. Hendershot, J. Forsaith in J. Pharmacol. Exptl. Ther. 125, 237 (1959), on mice. Male NMRI mice with a weight between 25 and 30 g were used for this purpose. For each dose of substance, each 10 animals received, 30 minutes after the oral administration of a compound according to the invention, 0.3 ml per mouse of an 0.02% aqueous phenylquinone solution (phenylbenzoquinone manufactured by Sigma, Deisenhofen; solution prepared with the addition of 5% ethanol and kept on a water bath at 45° C.) administered intraperitoneally. Thereafter the animals were placed individually in observation cages. The number of pain-induced stretching movements (writhing reaction-straightening of the body with stretching of the rear extremities) was counted with the aid of a push-button counter. The Ed50 value (effective dose with 50% inhibition of writhing reaction) was calculated with a 95% confidence limit by means of regression analysis (evaluation program supplied by Martens EDV-Service, Eckental) from the dose-dependent decrease in the writhing reaction, by comparison with mice tested in parallel to which only phenylquinone had been administered.
Compound `CC[C@](O)(c1cccc(OC(C)C)c1)[C@H](C)CN(C)C` (racemic) [(3), (2RS,3RS)-3-(3-isopropoxyphenyl)-1-dimethylamino-2-methylpentan-3-ol Hydrochloride] gave an inhibition at 25 mg/kg of 81.3%.
Still for that read-out and setting: the value for `CC[C@](O)(c1cccc(O)c1)[C@H](C)CN(C)C` (racemic) [(16), (2RS,3RS)-3-(3-dimethylamino-1-ethyl-1-hydroxy-2-methylpropyl)-phenol Hydrochloride] was 100%; that for `COc1cccc([C@](C)(O)[C@H](C)CN(C)C)c1` [(+15), Hydrochloride] was 95.2%; that for `C[C@H](CN(C)C)[C@@](C)(O)c1cccc(O)c1` [(+17), (+)-(1R,2R)-3-(3-dimethylamino-1-hydroxy-1,2-dimethylpropyl)-phenolhydrochloride] was 97.2%.
The same measure, in the same setting: the value for `C[C@@H](CN(C)C)[C@](C)(O)c1cccc(O)c1` [(−17), (−)-(1S,2S)-3-(3-dimethylamino-1-hydroxy-1,2-dimethylpropyl)-phenol Hydrochloride] was 58.3%.

Staying with this experiment, now noted: Mus musculus; male NMRI mice; oral administration 30 min before phenylquinone i.p.; dose with 50% inhibition of writhing reaction.
`CC[C@](O)(c1cccc(OC)c1)[C@H](C)CN(C)C.Cl` (racemic) [(1), (2RS,3RS)-1-dimethylamino-3-(3-methoxyphenyl)-2-methylpentan-3-ol Hydrochloride] returned an ED50 of 5.8 mg/kg.
The compound `CC[C@](O)(c1ccc(Cl)c(Cl)c1)[C@H](C)CN(C)C.Cl` (racemic) [(2), (2RS,3RS)-3-(3,4-dichlorophenyl)-1-dimethylamino-2-methylpentan-3-ol Hydrochloride] showed an ED50 of 13.2 mg/kg.
With `CC[C@](O)(c1cccc(Cl)c1)[C@H](C)CN(C)C.Cl` (racemic) [(4), (2RS,3RS)-3-(3-chlorophenyl)-1-dimethylamino-2-methylpentan-3-ol Hydrochloride], it took a dose of 15.5 mg/kg to reach the 50% effect level (ED50). This ED50 and that of the compound before are within 1.5-fold of each other.
Still for that read-out and setting: then `CC[C@](O)(c1cccc(C(F)(F)F)c1)[C@H](C)CN(C)C.Cl` (racemic) [(5), (2RS,3RS)-1-dimethylamino-2-methyl-3-(3-trifluoromethylphenyl)-pentan-3-ol Hydrochloride], with 8.3 mg/kg.
On the same count and under the same terms, the value for `CC[C@](O)(c1cccc(C)c1)[C@H](C)CN(C)C.Cl` (racemic) [(6), (2RS,3RS)-1-dimethylamino-2-methyl-3-(3-m-tolyl)-pentan-3-ol Hydrochloride] was 11.8 mg/kg; that for `CC[C@](O)(c1cccc(F)c1)[C@H](C)CN(C)C.Cl` (racemic) [(7), (2RS, 3RS)-1-dimethylamino-3-(3-fluorophenyl)-2-methylpentan-3-ol Hydrochloride] was 27.3 mg/kg; that for `CC[C@](O)(c1cccc(C(F)F)c1)[C@H](C)CN(C)C.Cl` (racemic) [(8), (2RS,3RS)-3-(3-difluoromethylphenyl)-1-dimethylamino-2-methylpentan-3-ol Hydrochloride] was 12.9 mg/kg.
In turn, `CC[C@](O)(c1cccc(SC)c1)[C@H](C)CN(C)C.Cl` (racemic) [(9), (2RS,3RS)-1-dimethylamino-2-methyl-3-(3-methylsulphanylphenyl)-pentan-3-ol Hydrochloride] gave a median effective dose (ED50) of 12.8 mg/kg.
Compound `CC[C@](O)(c1ccc2ccoc2c1)[C@H](C)CN(C)C.Cl` (racemic) [(10), (2RS,3RS)-3-benzofuran-6-yl-1-dimethylamino-2-methylpentan-3-ol Hydrochloride] registered an ED50 of 12.9 mg/kg.
Turning to `CCCC(O)(CCN(C)C)c1cccc(OC)c1.Cl` (racemic) [(12), (3RS)-1-dimethylamino-3-(3-methoxyphenyl)-hexan-3-ol Hydrochloride], the ED50 amounted to 19.9 mg/kg.
On the same count and under the same terms, then `COc1cccc(C(O)(CCN(C)C)C(C)(C)C)c1.Cl` (racemic) [(14), (3RS)-1-dimethylamino-3-(3-methoxyphenyl)-4,4-dimethylpentan-3-ol Hydrochloride], with 10.5 mg/kg; and `COc1cccc([C@](C)(O)[C@H](C)CN(C)C)c1` (racemic) [(15), Hydrochloride], with 3.8 mg/kg.
With `CC[C@](O)(c1cccc(OC)c1)[C@H](C)CN(C)C` [(+1), (+)-(2R,3R)-1-dimethylamino-3-(3-methoxyphenyl)-2-methylpentan-3-ol Hydrochloride], the median effective dose (ED50) was 1.1 mg/kg.
`CC[C@](O)(c1cccc(O)c1)[C@H](C)CN(C)C` [(+16), (+) (2S,3S 1R,2R)-3-(dimethylamino-1-ethyl-1-hydroxy-2-methylpropyl)-phenol Hydrochloride] yielded an ED50 of 1 mg/kg.
Still for that read-out and setting: the value for `CC[C@](F)(c1cccc(O)c1)[C@H](C)CN(C)C.Cl` [(+18), (+)-(1R,2R)-3-(3-dimethylamino-1-ethyl-1-fluoro-2-methylpropyl)-phenol Hydrochloride] was 15.7 mg/kg; that for `CC[C@H](c1cccc(O)c1)[C@H](C)CN(C)C.Cl` [(+21), (+)-(1S,2R 2S)-3-(3-dimethylamino-1-ethyl-2-methylpropyl)-phenol hydrochloride] was 1.9 mg/kg.
Same read-out and setting: then `CC[C@@](O)(c1cccc(OC)c1)[C@@H](C)CN(C)C` [(−1), (−)-(2S,3S)-1-dimethylamino-3-(3-methoxyphenyl)-2-methylpentan-3-ol Hydrochloride], with 22.3 mg/kg.
`CC[C@@](O)(c1cccc(O)c1)[C@@H](C)CN(C)C` [(−16), (-) (2S,3S) 1S,2S)-3-(dimethylamino-1-ethyl-1-hydroxy-2-methylpropyl)-phenol Hydrochloride] yielded an ED50 of 16.1 mg/kg.
